Measured values as given in patent publication US20240374602A1, “METHODS FOR TREATING NEUROGENERATIVE DISEASES” (PTC THERAPEUTICS, INC., priority 2021, published 2024).

Each compound was assayed on MAPT 3R mRNA (assay: RT-qPCR Assay to Quantify MAPT 3R mRNA in Cells). Conditions: cells incubated with compound 24 h; 7-point concentration curve; in house MAPT minigene 3R primer/probe with GAPDH assay; EC2x interpolated from dose response curve.
Type: cell-based
Design: key to EC2X: An EC2x value≥3000 nM is indicated by “inactive.”; An EC2x value between >1500 nM and ≤3000 nM is indicated by one star (*); An EC2x value between >1000 nM and ≤1500 nM is indicated by two stars (**); An EC2x value between >500 nM and ≤1000 nM is indicated by three stars (***); An EC2x value between >50 nM and ≤500 nM is indicated by four stars (****); An EC2x value≤50 nM is indicated by five stars (*****)
Method: RT-qPCR Assay to Quantify MAPT 3R mRNA in Cells
Test compounds were serially diluted 3.16-fold in 100% DMSO to generate a 7-point concentration curve. Aliquots of 0.5 μL of diluted compounds were transferred to a 96-well flat bottom plate by a liquid handler. An aliquot of 0.5 μL DMSO was also transferred to separate wells and used as controls. Duplicate samples were set up for each compound concentration and for the DMSO control.
Cells were thawed and incubated in cell culture media (DMEM, 1 FBS, and No antibiotic cocktail) for 72 h. Cells were trypsinized, counted, and re-suspended to a concentration of 200,000 cells/mL in cell culture media. A 100 μL aliquot of the cell suspensions were plated at 20,000 cells per well in the compound containing 96 well microtiter plate and incubated for in a cell culture incubator (37° C., […], 100% relative humidity).
After 24 h, media was aspirated from the cells and 20 μL of the RCL2 lysis buffer (10 mM Tris-HCL pH 7.4, 150 mM NaCl, […]) was added to each well and incubated at RT for 1 mi. Chilled nuclease free water (140 μL per well) was added and the plates were immediately transferred on ice. After 1 min on ice, plates were frozen at −80° C. overnight.
Preparation of RT-PCR Reaction Mixture:
An aliquot of 4 μL/well of the cell lysates was transferred using the liquid handler to the Armadillo 384-Well PCR plate containing 6 μL/well of the RT-qPCR reaction mixture that was prepared as detailed above. The plates were then sealed with MicroAmp™ Optical Adhesive Film followed by spinning down for 1 min and placed in the CFX384 thermocycler (BioRad).
The RT-qPCR was carried out at the following temperatures for the indicated time: • Step 1: 48° C. (30 min) • Step 2: 95° C. (10 min) • Step 3: 95° C. (15 sec) • Step 4: 60° C. (1 min); then, repeated Steps 3 and 4 for a total of 40 cycles.
The percent exon 4 skipping was calculated for each dose of compound treatment using Equations 1 and 2.
Data were fit to a dose response curve and the EC2x was interpolated using XLfit® statistical and curve fitting package.
An EC2x value between >1000 nM and ≤1500 nM is indicated by two stars (**). An EC2x value between >500 nM and ≤1000 nM is indicated by three stars (***). An EC2x value between >50 nM and ≤500 nM is indicated by four stars (****). An EC2x value≤50 nM is indicated by five stars (*****).

**Q.** Cc1c(C[C@@H](C)CN)sc2c(NCc3ccco3)nc(Cl)nc12 [Cpd 72, 6-[(2R)-3-amino-2-methylpropyl]-2-chloro-N-[(furan-2-yl)methyl]-7-methylthieno[3,2-d]pyrimidin-4-amine] was tested. Which EC (2-fold) did it give?
**A.** Its EC (2-fold) is 1.5 to 3 µM.

**Q.** With C[C@H](N)Cc1sc2c(NCc3cccs3)nc(Cl)nc2c1C1CC1 [Cpd 86, 6-[(2S)-2-aminopropyl]-2-chloro-7-cyclopropyl-N-[(thiophen-2-yl)methyl]thieno[3,2-d]pyrimidin-4-amine] as the compound, how does the EC (2-fold) read?
**A.** The EC (2-fold) was 0.05 to 0.5 µM.

**Q.** For Cc1c(C[C@H](C)N)sc2c(NCc3ccco3)nc(Cl)nc12 [Cpd 12, 6-[(2S)-2-aminopropyl]-2-chloro-N-[(furan-2-yl)methyl]-7-methylthieno[3,2-d]pyrimidin-4-amine], which EC (2-fold) is on record?
**A.** Its EC (2-fold) is ≤ 0.05 µM.

**Q.** For Cc1c(C[C@H](C)N)sc2c(NCc3cncs3)nc(Cl)nc12 [Cpd 74, 6-[(2S)-2-aminopropyl]-2-chloro-7-methyl-N-[(1,3-thiazol-5-yl)methyl]thieno[3,2-d]pyrimidin-4-amine], which EC (2-fold) is on record?
**A.** Its EC (2-fold) is ≤ 0.05 µM.

**Q.** Which EC (2-fold) does the source give for CC(C)[C@H](N)Cc1cc2nc(Cl)nc(NCc3ccco3)c2s1 [Cpd 5, 6-[(2R)-2-amino-3-methylbutyl]-2-chloro-N-[(furan-2-yl)methyl]thieno[3,2-d]pyrimidin-4-amine] here?
**A.** The EC (2-fold) was 0.05 to 0.5 µM.

**Q.** Cc1c(C[C@H](C)N)sc2c(NCc3ccc(F)s3)nc(Cl)nc12 [Cpd 33, 6-[(2S)-2-aminopropyl]-2-chloro-N-[(5-fluorothiophen-2-yl)methyl]-7-methylthieno[3,2-d]pyrimidin-4-amine] was tested. Which EC (2-fold) did it give?
**A.** Its EC (2-fold) is 0.05 to 0.5 µM.

**Q.** Which EC (2-fold) does the source give for Cc1c(C[C@H](C)N)sc2c(NCc3cccs3)nc(Cl)nc12 [Cpd 28, 6-[(2S)-2-aminopropyl]-2-chloro-7-methyl-N-[(thiophen-2-yl)methyl]thieno[3,2-d]pyrimidin-4-amine] here?
**A.** Its EC (2-fold) is ≤ 0.05 µM.

**Q.** How did the EC (2-fold) turn out when Cc1c(C[C@H](C)N)sc2c(NCc3ncccc3F)nc(Cl)nc12 [Cpd 59, 6-[(2S)-2-aminopropyl]-2-chloro-N-[(3-fluoropyridin-2-yl)methyl]-7-methylthieno[3,2-d]pyrimidin-4-amine] was run?
**A.** The EC (2-fold) was 0.5 to 1 µM.

**Q.** Cc1c(C[C@H](C)N)sc2c(NCc3ccno3)nc(Cl)nc12 [Cpd 39, 6-[(2S)-2-aminopropyl]-2-chloro-7-methyl-N-[(1,2-oxazol-5-yl)methyl]thieno[3,2-d]pyrimidin-4-amine] was tested. Which EC (2-fold) did it give?
**A.** Its EC (2-fold) is 0.05 to 0.5 µM.

**Q.** With Cc1c(C[C@H](C)N)sc2c(NCc3ncc(F)s3)nc(Cl)nc12 [Cpd 93, 6-[(2S)-2-aminopropyl]-2-chloro-N-[(5-fluoro-1,3-thiazol-2-yl)methyl]-7-methylthieno[3,2-d]pyrimidin-4-amine] as the compound, how does the EC (2-fold) read?
**A.** The EC (2-fold) was 0.05 to 0.5 µM.

**Q.** C[C@H](N)Cc1sc2c(NCc3cccs3)nc(Cl)nc2c1Br [Cpd 82, 6-[(2S)-2-aminopropyl]-7-bromo-2-chloro-N-[(thiophen-2-yl)methyl]thieno[3,2-d]pyrimidin-4-amine] was tested. Which EC (2-fold) did it give?
**A.** Its EC (2-fold) is ≤ 0.05 µM.

**Q.** Which EC (2-fold) does the source give for Cc1c(C[C@H](C)N)sc2c(NCc3ccco3)nc(Br)nc12 [Cpd 38, 6-[(2S)-2-aminopropyl]-2-bromo-N-[(furan-2-yl)methyl]-7-methylthieno[3,2-d]pyrimidin-4-amine] here?
**A.** Its EC (2-fold) is 0.5 to 1 µM.

**Q.** CCc1c(C[C@H](C)N)sc2c(NCc3ccco3)nc(Cl)nc12 [Cpd 77, 6-[(2S)-2-aminopropyl]-2-chloro-7-ethyl-N-[(furan-2-yl)methyl]thieno[3,2-d]pyrimidin-4-amine] was tested. Which EC (2-fold) did it give?
**A.** Its EC (2-fold) is 0.05 to 0.5 µM.

**Q.** Which EC2X does the source give for Cc1c(C[C@H](C)N)sc2c(NCc3c(F)cncc3F)nc(Cl)nc12 [Cpd 64, 6-[(2S)-2-aminopropyl]-2-chloro-N-[(3,5-difluoropyridin-4-yl)methyl]-7-methylthieno[3,2-d]pyrimidin-4-amine] here?
**A.** The EC2X was “inactive”.

**Q.** How did the EC (2-fold) turn out when Cc1c(C[C@H](C)N)sc2c(NCc3nc(F)cs3)nc(Cl)nc12 [Cpd 92, 6-[(2S)-2-aminopropyl]-2-chloro-N-[(4-fluoro-1,3-thiazol-2-yl)methyl]-7-methylthieno[3,2-d]pyrimidin-4-amine] was run?
**A.** Its EC (2-fold) is 0.05 to 0.5 µM.

**Q.** Cc1c(C[C@@H](N)CCF)sc2c(NCc3ccco3)nc(Cl)nc12 [Cpd 51, 6-[(2S)-2-amino-4-fluorobutyl]-2-chloro-N-[(furan-2-yl)methyl]-7-methylthieno[3,2-d]pyrimidin-4-amine] was tested. Which EC (2-fold) did it give?
**A.** The EC (2-fold) was ≤ 0.05 µM.

**Q.** Cc1csc2c(NCc3ccncc3)nc(Cl)nc12 [Cpd 23, 2-chloro-7-methyl-N-[(pyridin-4-yl)methyl]thieno[3,2-d]pyrimidin-4-amine] was tested. Which EC (2-fold) did it give?
**A.** The EC (2-fold) was 0.05 to 0.5 µM.

**Q.** For Cc1c(C[C@@H](N)CO)sc2c(NCc3cccs3)nc(Cl)nc12 [Cpd 56, (2R)-2-amino-3-(2-chloro-7-methyl-4-{[(thiophen-2-yl)methyl]amino}thieno[3,2-d]pyrimidin-6-yl)propan-1-ol], which EC (2-fold) is on record?
**A.** The EC (2-fold) was ≤ 0.05 µM.

**Q.** Cc1c(C[C@H](C)N)sc2c(NCc3cnco3)nc(Cl)nc12 [Cpd 75, 6-[(2S)-2-aminopropyl]-2-chloro-7-methyl-N-[(1,3-oxazol-5-yl)methyl]thieno[3,2-d]pyrimidin-4-amine] was tested. Which EC (2-fold) did it give?
**A.** Its EC (2-fold) is 0.5 to 1 µM.

**Q.** Cc1c(C[C@H](C)N)sc2c(NCc3sccc3F)nc(Cl)nc12 [Cpd 90, 6-[(2S)-2-aminopropyl]-2-chloro-N-[(3-fluorothiophen-2-yl)methyl]-7-methylthieno[3,2-d]pyrimidin-4-amine] was tested. Which EC (2-fold) did it give?
**A.** The EC (2-fold) was 0.05 to 0.5 µM.

**Q.** For CC[C@H](N)Cc1sc2c(NCc3ccns3)nc(Cl)nc2c1C [Cpd 62, 6-[(2S)-2-aminobutyl]-2-chloro-7-methyl-N-[(1,2-thiazol-5-yl)methyl]thieno[3,2-d]pyrimidin-4-amine], which EC (2-fold) is on record?
**A.** The EC (2-fold) was 0.05 to 0.5 µM.

**Q.** Which EC (2-fold) does the source give for Cc1cnc(CNc2nc(Cl)nc3c(C)c(C[C@H](C)N)sc23)s1 [Cpd 31, 6-[(2S)-2-aminopropyl]-2-chloro-7-methyl-N-[(5-methyl-1,3-thiazol-2-yl)methyl]thieno[3,2-d]pyrimidin-4-amine] here?
**A.** Its EC (2-fold) is 1.5 to 3 µM.

**Q.** For Cc1c(C[C@@H](N)CCO)sc2c(NCc3ccco3)nc(Cl)nc12 [Cpd 97, (3S)-3-amino-4-(2-chloro-4-{[(furan-2-yl)methyl]amino}-7-methylthieno[3,2-d]pyrimidin-6-yl)butan-1-ol], which EC (2-fold) is on record?
**A.** The EC (2-fold) was ≤ 0.05 µM.

**Q.** How did the EC (2-fold) turn out when Cc1nc(NCc2ccco2)c2sc(C[C@H](C)N)c(C)c2n1 [Cpd 15, 6-[(2S)-2-aminopropyl]-N-[(furan-2-yl)methyl]-2,7-dimethylthieno[3,2-d]pyrimidin-4-amine] was run?
**A.** The EC (2-fold) was 0.05 to 0.5 µM.

**Q.** Cc1ccc(CNc2nc(Cl)nc3c(C)c(C[C@H](C)N)sc23)o1 [Cpd 24, 6-[(2S)-2-aminopropyl]-2-chloro-7-methyl-N-[(5-methylfuran-2-yl)methyl]thieno[3,2-d]pyrimidin-4-amine] was tested. Which EC (2-fold) did it give?
**A.** Its EC (2-fold) is 0.05 to 0.5 µM.

**Q.** For Cc1c(C[C@H](C)N)sc2c(NCc3nccs3)nc(Cl)nc12 [Cpd 29, 6-[(2S)-2-aminopropyl]-2-chloro-7-methyl-N-[(1,3-thiazol-2-yl)methyl]thieno[3,2-d]pyrimidin-4-amine], which EC (2-fold) is on record?
**A.** Its EC (2-fold) is ≤ 0.05 µM.

**Q.** For Cc1c(C[C@H](C)NC2CCC2)sc2c(NCc3ccco3)nc(Cl)nc12 [Cpd 78, 2-chloro-6-[(2S)-2-(cyclobutylamino)propyl]-N-[(furan-2-yl)methyl]-7-methylthieno[3,2-d]pyrimidin-4-amine], which EC (2-fold) is on record?
**A.** Its EC (2-fold) is 1.5 to 3 µM.

**Q.** Cc1c(C[C@H](C)N)sc2c(NCc3cccnc3F)nc(Cl)nc12 [Cpd 60, 6-[(2S)-2-aminopropyl]-2-chloro-N-[(2-fluoropyridin-3-yl)methyl]-7-methylthieno[3,2-d]pyrimidin-4-amine] was tested. Which EC (2-fold) did it give?
**A.** The EC (2-fold) was 1.5 to 3 µM.
